# In patent publication US8791118B2, “Pyridopyrazines as highly selective ras-Raf-Mek-Erk signal transduction pathway inhibitors” (Aeterna Zentaris GmbH, priority 2011, dated 2014):
# pIC50: −log10 of the molar value. Structures can show the parent of a compound that is named as a salt.
# Target: Erk2 (Homo sapiens, UniProt P28482)
# Test: Erk2 alpha kinase assay (cell-free, ALPHA technology)
# Type: biochemical
# Details: 10 μM ATP
# Description: The inhibitory effect of the compounds according to the invention was tested on various serine/threonine, tyrosine and lipid kinases in enzymatic assays. Recombinant human kinases such as, for example, Erk2, were used in this case, partly as full-length kinases, partly as shortened fragments, but at least consisting of the functional kinase domains. The commercial kinase proteins (Proqinase, Upstate) were used as recombinant fusion proteins with GST (glutathion-S-transferase) or His-Tag. Depending on the type of substrate, the various kinase reactions were quantified by means of suitable ALPHA™ beads (Perkin-Elmer). The substance testing is described in detail hereinafter for the Erk assay. […] a) MAPK-ALPHAs (e.g. […] The fluorescence was detected the following morning in a Envision plate reader (Perkin-Elmer). The %-inhibition values per substance concentration were calculated by means of the following formula from the raw data determined in the Envision plate reader[…]: Eight determinations were made for each control and two for the substance samples. […] The IC50 values were determined using GraphPadPrism.
# Sequence of Erk2 (P28482 2-360 limits assumed): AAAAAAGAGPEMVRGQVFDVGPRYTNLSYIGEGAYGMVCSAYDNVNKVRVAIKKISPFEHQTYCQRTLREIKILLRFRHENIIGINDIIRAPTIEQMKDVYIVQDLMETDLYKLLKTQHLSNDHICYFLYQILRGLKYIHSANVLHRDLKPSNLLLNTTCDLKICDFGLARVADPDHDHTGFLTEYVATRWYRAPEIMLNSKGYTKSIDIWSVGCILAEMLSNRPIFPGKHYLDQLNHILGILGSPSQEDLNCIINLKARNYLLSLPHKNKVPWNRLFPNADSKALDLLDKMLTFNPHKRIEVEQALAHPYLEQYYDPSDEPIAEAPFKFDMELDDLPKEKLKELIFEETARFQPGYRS
row,Structure (SMILES),pIC50
1,"C[C@H](CCCc1ccccc1)NC(=O)Nc1ccc2ncc(-c3cccc(CO)c3)nc2n1 [Compound 181, 1-[3-(3-Hydroxymethyl-phenyl)-pyrido[2,3-b]pyrazin-6-yl]-3-((R)-1-methyl-4-phenyl-butyl)-urea]",8.22
2,"O=C(NCCCCc1ccccc1)Nc1ccc2ncc(-c3cnn(CCCO)c3)nc2n1 [Compound 162, 1-{3-[1-(3-Hydroxy-propyl)-1H-pyrazol-4-yl]-pyrido[2,3-b]pyrazin-6-yl}-3-(4-phenyl-butyl)-urea]",8.70
3,"C[C@H](CCCc1ccccc1)NC(=O)Nc1ccc2ncc(-c3cn[nH]c3)nc2n1 [Compound 171, 1-((R)-1-Methyl-4-phenyl-butyl)-3-[3-(1H-pyrazol-4-yl)-pyrido[2,3-b]pyrazin-6-yl]-urea]",8.40
4,"C[C@H](CCCc1ccccc1)NC(=O)Nc1ccc2ncc(-c3cccc(C(=O)O)c3)nc2n1 [Compound 196, 3-{6-[3-((R)-1-Methyl-4-phenyl-butyl)-ureido]-pyrido[2,3-b]pyrazin-3-yl}-benzoic acid]",8.40
5,"C[C@H](CCCc1ccccc1)NC(=O)Nc1ccc2ncc(-c3ccncc3)nc2n1 [Compound 157, 1-((R)-1-Methyl-4-phenyl-butyl)-3-(3-pyridin-4-yl-pyrido[2,3-b]pyrazin-6-yl)-urea]",8.70
6,"COc1ccccc1-c1cnc2ccc(NC(=O)N[C@H](C)CCCc3ccccc3)nc2n1 [Compound 179, 1-[3-(2-Methoxy-phenyl)-pyrido[2,3-b]pyrazin-6-yl]-3-((R)-1-methyl-4-phenyl-butyl)-urea]",8.22
7,"C[C@H](CCCc1ccccc1)NC(=O)Nc1ccc2ncc(N3CCCC3)nc2n1 [Compound 173, 1-((R)-1-Methyl-4-phenyl-butyl)-3-(3-pyrrolidin-1-yl-pyrido[2,3-b]pyrazin-6-yl)-urea]",8.30
8,"O=C(NCCCCc1ccccc1)Nc1ccc2ncc(-c3cccc(CO)c3)nc2n1 [Compound 175, 1-[3-(3-Hydroxymethyl-phenyl)-pyrido[2,3-b]pyrazin-6-yl]-3-(4-phenyl-butyl)-urea]",8.22
9,"C[C@H](CCCc1ccccc1)NC(=O)Nc1ccc2ncc(-c3cnn(C)c3)nc2n1 [Compound 180, 1-((R)-1-Methyl-4-phenyl-butyl)-3-[3-(1-methyl-1H-pyrazol-4-yl)-pyrido[2,3-b]pyrazin-6-yl]urea]",8.22
10,"COc1cc(-c2cnc3ccc(NC(=O)NCCCCc4ccccc4)nc3n2)ccc1C(=O)O [Compound 194, 2-Methoxy-4-{6-[3-(4-phenyl-butyl)-ureido]-pyrido[2,3-b]pyrazin-3-yl}-benzoic acid]",9.00
11,"COCc1cccc(-c2cnc3ccc(NC(=O)N[C@H](C)CCCc4ccccc4)nc3n2)c1 [Compound 203, 1-[3-(3-Methoxymethyl-phenyl)-pyrido[2,3-b]pyrazin-6-yl]-3-((R)-1-methyl-4-phenyl-butyl)-urea]",7.62
12,"C[C@H](CCCc1ccccc1)NC(=O)Nc1ccc2ncc(-c3ccc(C[C@H](N)C(=O)O)cc3)nc2n1 [Compound 195, (S)-2-Amino-3-(4-{6-[3-((R)-1-methyl-4-phenyl-butyl)-ureido]-pyrido[2,3-b]pyrazin-3-yl}-phenyl)-propionic acid; hydrochloride]",9.00
13,"O=C(NCCCCc1ccccc1)Nc1ccc2ncc(-c3ccc(OCCN4CCOCC4)cc3)nc2n1 [Compound 202, 1-{3-[4-(2-Morpholin-4-yl-ethoxy)-phenyl]-pyrido[2,3-b]pyrazin-6-yl}-3-(4-phenyl-butyl)-urea]",7.39
14,"O=C(NCCCCc1ccccc1)Nc1ccc2ncc(-c3ccc(O)c(F)c3)nc2n1 [Compound 174, 1-[3-(3-Fluoro-4-hydroxy-phenyl)-pyrido[2,3-b]-pyrazin-6-yl]-3-(4-phenyl-butyl)-urea]",8.22
15,"O=C(NCCCCc1ccccc1)Nc1ccc2ncc(-c3cnn(CCN4CCOCC4)c3)nc2n1 [Compound 127, 1-{3-[1-(2-Morpholin-4-yl-ethyl)-1H-pyrazol-4-yl]-pyrido[2,3-b]pyrazin-6-yl}-3-(4-phenyl-butyl)-urea]",8.30
16,"O=C(NCCCCc1ccccc1)Nc1ccc2ncc(-c3cnn(CCO)c3)nc2n1 [Compound 189, 1-{3-[1-(2-Hydroxy-ethyl)-1H-pyrazol-4-yl]-pyrido[2,3-b]pyrazin-6-yl}-3-(4-phenyl-butyl)-urea]",8.40

# Test system: not given
# Test: not given
# Details: not given
row,Structure (SMILES),melting point
1,"C[C@H](CCCc1ccccc1)NC(=O)Nc1ccc2ncc(-c3cn[nH]c3)nc2n1 [Compound 171, 1-((R)-1-Methyl-4-phenyl-butyl)-3-[3-(1H-pyrazol-4-yl)-pyrido[2,3-b]pyrazin-6-yl]-urea]",274 to 276 °C
2,"C[C@H](CCCc1ccccc1)NC(=O)Nc1ccc2ncc(-c3cccc(C(=O)O)c3)nc2n1 [Compound 196, 3-{6-[3-((R)-1-Methyl-4-phenyl-butyl)-ureido]-pyrido[2,3-b]pyrazin-3-yl}-benzoic acid]",261 °C (dec.)
3,"C[C@H](CCCc1ccccc1)NC(=O)Nc1ccc2ncc(-c3ccncc3)nc2n1 [Compound 157, 1-((R)-1-Methyl-4-phenyl-butyl)-3-(3-pyridin-4-yl-pyrido[2,3-b]pyrazin-6-yl)-urea]",223 to 226 °C
4,"COc1ccccc1-c1cnc2ccc(NC(=O)N[C@H](C)CCCc3ccccc3)nc2n1 [Compound 179, 1-[3-(2-Methoxy-phenyl)-pyrido[2,3-b]pyrazin-6-yl]-3-((R)-1-methyl-4-phenyl-butyl)-urea]",137 to 138 °C
5,"C[C@H](CCCc1ccccc1)NC(=O)Nc1ccc2ncc(N3CCCC3)nc2n1 [Compound 173, 1-((R)-1-Methyl-4-phenyl-butyl)-3-(3-pyrrolidin-1-yl-pyrido[2,3-b]pyrazin-6-yl)-urea]",187 to 190 °C
6,"CCCn1cc(-c2cnc3ccc(NC(=O)NCCCC(C)(C)c4ccccc4)nc3n2)cn1 [Compound 100, 1-(4-Methyl-4-phenyl-pentyl)-3-[3-(1-propyl-1H-pyrazol-4-yl)-pyrido[2,3-b]pyrazin-6-yl]-urea]",205 to 207 °C
7,"O=C(NCCCCc1ccccc1)Nc1ccc2ncc(-c3ccoc3)nc2n1 [Compound 152, 1-(3-Furan-3-yl-pyrido[2,3-b]pyrazin-6-yl)-3-(4-phenyl-butyl)-urea]",212 to 216 °C
8,"C[C@H](CCCc1ccccc1)NC(=O)Nc1ccc2ncc(-c3ccoc3)nc2n1 [Compound 149, 1-(3-Furan-3-yl-pyrido[2,3-b]pyrazin-6-yl)-3-((R)-1-methyl-4-phenyl-butyl)-urea]",218 to 220 °C
9,"C[C@H](CCCc1ccccc1)NC(=O)Nc1ccc2ncc(-c3ccc(O)c(Cl)c3)nc2n1 [Compound 129, 1-[3-(3-Chloro-4-hydroxy-phenyl)-pyrido[2,3-b]pyrazin-6-yl]-3-((R)-1-methyl-4-phenyl-butyl)-urea]",225 to 228 °C
10,"Cc1ccccc1-c1cnc2ccc(NC(=O)NCCCCc3ccccc3)nc2n1 [Compound 120, 1-(4-Phenyl-butyl)-3-(3-o-tolyl-pyrido[2,3-b]pyrazin-6-yl)-urea]",158 to 160 °C
11,"CCOc1ccccc1-c1cnc2ccc(NC(=O)NCCCCc3ccccc3)nc2n1 [Compound 102, 1-[3-(2-Ethoxy-phenyl)-pyrido[2,3-b]pyrazin-6-yl]-3-(4-phenyl-butyl)-urea]",173 to 175 °C
12,"Nc1cccc(-c2cnc3ccc(NC(=O)NCCCCc4ccccc4)nc3n2)c1 [Compound 95, 1-[3-(3-Amino-phenyl)-pyrido[2,3-b]pyrazin-6-yl]-3-(4-phenyl-butyl)-urea]",200 to 203 °C
13,"O=C(NCCCCc1ccccc1)Nc1ccc2ncc(-c3ccc4nc[nH]c4c3)nc2n1 [Compound 94, 1-[3-(3H-Benzoimidazol-5-yl)-pyrido[2,3-b]pyrazin-6-yl]-3-(4-phenyl-butyl)-urea]",226 °C
14,"COc1ccc(-c2cnc3ccc(NC(=O)N[C@H](C)CCCc4ccccc4)nc3n2)cc1O [Compound 148, 1-[3-(3-Hydroxy-4-methoxy-phenyl)-pyrido[2,3-b]pyrazin-6-yl]-3-((R)-1-methyl-4-phenyl-butyl)-urea]",196 to 198 °C
15,"Cc1c(-c2cnc3ccc(NC(=O)NCCCCc4ccccc4)nc3n2)cnn1-c1ccccc1 [Compound 113, 1-[3-(5-Methyl-1-phenyl-1H-pyrazol-4-yl)-pyrido[2,3-b]pyrazin-6-yl]-3-(4-phenyl-butyl)-urea]",224 to 226 °C
16,CCNC(=O)Oc1ccc(-c2cnc3ccc(NC(=O)NCCCCc4ccccc4)nc3n2)cc1,198 °C
